As usually defined, the pKa is the negative logarithm of the acid dissociation constant. Low readings indicate a group that gives up its proton readily, high ones a group that holds its proton tightly.

For the molecule `Cc1ccc([Se]O)c([N+](=O)[O-])c1`, the pKa (acidic group) turned out to be 10.7.
For the molecule `C[n+]1ccc([O-])nc1[O-]`, the pKa (basic group) is 9.73.
The same measure, in the same setting: under `CN1CCCCN1C` stands 6.66.
For the molecule `O=S(=O)(NBr)c1ccccc1`, where the note is “acidic group”, the pKa amounted to 4.95.
`COc1ccc(O)c(C)c1` displayed a pKa (acidic group) of 10.2.
Molecule `O=C([O-])CSc1nc2cc3ccccc3cc2[nH]1` yielded a pKa (basic group) of 4.68.
For the molecule `O=C(O)c1cccc(I)c1`, the pKa (acidic group) turned out to be 3.83.
In the case of `[NH3+]CCC(=O)NC(Cc1c[nH]c[nH+]1)C(=O)O` (configuration not stated), under “acidic group”, the pKa amounted to 2.96.
In the case of `CCc1cncc(C)c1`, the pKa (basic group) stood at 5.2.
On the same count and under the same terms, under `OC[C@@H]1O[C@H](n2cnc3ccccc32)[C@@H](O)[C@H](O)[C@H]1O` stands 4.01; under `CC(C)NCCNC(C)C`, 10.4.
Consider `CCc1cc(C(C)C)c(O)cc1C`, for which, under “acidic group”, the pKa was determined as 10.9.
For `O=Cc1ccnc2ccccc12`, where the note is “basic group”, the pKa was found to be 4.25.
On the same count and under the same terms, under `Nc1ccc2ccnnc2c1` stands 4.85.
Under “acidic group”, `O=c1cc(-c2cccc(O)c2)oc2ccccc12` gave a pKa of 9.75.
Turning to `C=C(C)C(=O)OCCNCC(C)C`, the pKa (basic group) turned out to be 8.91.
`NC(=O)/C(=N\O)c1ccccc1`: the pKa (acidic group) is 10.1.
Still for that read-out and setting: under `O=[N+]([O-])c1cc(Cl)ccc1[Se]O` stands 10.2.
Still for that read-out and setting: under `CN(C)S(=O)(=O)c1ccc(NS(=O)(=O)c2ccc(N)cc2)cc1` stands 6.23.
As for `C[C@H](CCCNCc1ccccc1)[C@H]1CC[C@H]2[C@@H]3CC[C@@H]4C[C@H](O)CC[C@]4(C)[C@H]3C[C@H](O)[C@]12C`, the pKa (basic group) amounted to 9.07.
Still for that read-out and setting: the figure for `C1CCN(N2CCCC2)C1` is 7.16.
In turn, `C[N+](C)(C)NC(=O)c1cccc([N+](=O)[O-])c1` yielded a pKa (acidic group) of 3.16.
Take `Nc1cc[n+]([O-])cc1`: the pKa (basic group) came out at 3.61.
The same measure, in the same setting: under `NCCC[NH2+]CCO` stands 8.19.
On to `On1nnc2ccccc21`, for which the pKa (acidic group) was 4.6.
Same read-out and setting: under `Cc1cc(I)c(O)c(I)c1` stands 6.
For the molecule `Clc1ccc(-c2cnc(-c3ccccc3)o2)cc1`, the pKa (basic group) amounted to 0.7.
For `O=C(O)C[C@@H]1NC(=O)CNC1=O`, the pKa (acidic group) is 3.93.
Take `CC(C)CCP(=O)(O)CCC(C)C`: for the setting “acidic group”, the pKa came to 3.26.
With `Nc1ccc(Cc2ccc([NH3+])cc2)cc1`, for the setting “basic group”, the pKa came to 4.
In turn, `O=S(=O)(Nc1cccc(C(F)(F)F)c1)C(F)(F)F` had a pKa (acidic group) of 3.5.
Molecule `Cc1ccnc(C)c1` showed a pKa (basic group) of 6.77.
In the case of `CC(=O)N(C)c1nnc(S(N)(=O)=O)s1`, for the setting “acidic group”, the pKa was 7.4.
For `C=C(C(=O)O[C@H]1C[C@@H]2[C@@H]3O[C@@H]3[C@H](C1)N2C)c1ccccc1`, the pKa (basic group) was determined as 7.72.
In the case of `Oc1cc(-c2ccccc2)no1`, for the setting “acidic group”, the pKa amounted to 4.01.
Still for that read-out and setting: the figure for `[O-][n+]1ccc(O)cc1` is 5.76; for `Cc1c[n+]([C@@H]2C[C@@H](O)[C@H](CO)O2)c(O)nc1N` it is 4.4.
For the molecule `Nc1ccnc2c1ncn2CCOCP(=O)(O)O`, the pKa (basic group) was 5.49.
The same measure, in the same setting: the figure for `O=C([O-])c1c2ccccc2nc2ccccc12` is 5.
Turning to `NS(=O)(=O)C(F)(F)Cl`, the pKa (acidic group) amounted to 6.5.
Still for that read-out and setting: under `CC[NH+](CC)Cc1c(O)cccc1Cl` stands 7.5.
Molecule `c1ccc(-c2cnc(-c3ccccc3)o2)cc1` came in with a pKa (basic group) of 0.84.
Still for that read-out and setting: under `NC(=O)C(N)Cc1c[nH]cn1` (configuration not stated) stands 7.64.
`NC(=[NH2+])NOCC(=O)O` displayed a pKa (acidic group) of 2.69.
For the molecule `CN(C)CCOCC[NH+](C)C`, the pKa (basic group) came out at 8.21.
On the same count and under the same terms, under `OCCCCNCl` stands 1.49; under `CC1[C@H](N)[C@H]1N` (some centres not stated), 8.98.
For the molecule `Cc1cc(=O)oc2cc(O)c(Cl)cc12`, the pKa (acidic group) was 6.1.
For `C1CCN(CCCN2CCCC2)C1`, under “basic group”, the pKa came out at 10.
`CN(C)C(=S)SCC(=O)O`: the pKa (acidic group) stood at 3.34.
For `OCc1ccccc1O`, the pKa (acidic group) was found to be 9.92.
`C=CCN(C)CCOC(=O)C(=C)C`: under “basic group”, the pKa turned out to be 7.39.
The same measure, in the same setting: the figure for `CC1=NCCS1` is 5.29.
Take `CC[NH+]1CCC[C@@H]1CNC(=O)c1c(OC)ccc(Cl)c1O`: where the note is “acidic group”, the pKa was found to be 7.07.
Turning to `Nc1ccnc([O-])n1`, for the setting “basic group”, the pKa turned out to be 12.2.
With `Nc1nc[nH+]c(O)c1N`, the pKa reads like this: (acidic group) 3.57; (basic group) 1.34.
`NC(=O)C1CC2CCN1CC2` (configuration not stated) returned a pKa (acidic group) of 9.04.
For the setting “acidic group”, `N#CCCC(C(=O)O)c1ccccc1` (configuration not stated) yielded a pKa of 3.92.
Consider `CCC(C)[C@H](N)C(=O)[O-]` (some centres not stated), for which the pKa (basic group) was found to be 9.62.
The same measure, in the same setting: the figure for `COc1cc(S(C)=O)ccc1-c1nc2ccccc2[nH]1` (configuration not stated) is 4.76.
With `Cc1ccc(CCC(=O)O)cc1`, the pKa (acidic group) came out at 4.74.
As for `CCOC(=O)Cc1nc2ccccc2[nH]1`, the pKa runs as follows: (acidic group) 13.1; (basic group) 5.7.
Turning to `Cc1cc(O)n(-c2nc(C)c(C)c([O-])n2)n1`, for the setting “basic group”, the pKa was 10.3.
As for `Cc1cc(O)cc(C)c1C#N`, the pKa (acidic group) turned out to be 8.21.
Turning to `CCCCCCCCCCCCCCN(CCO)CC(O)CC` (configuration not stated), the pKa (basic group) worked out at 6.1.
Turning to `Oc1ccc2c(c1)Cc1ccccc1-2`, the pKa (acidic group) was found to be 9.51.
Turning to `NC1=NS(=O)(=O)Nc2nc[nH]c21`, the pKa is 4.28 (acidic group) and 0.28 (basic group).
`OCCN(CCc1nnn[n-]1)CCc1nnn[n-]1`: the pKa (basic group) was determined as 8.9.
Same read-out and setting: the figure for `CC(C)NC[Si](C)(C)C` is 10.8.
Where the note is “acidic group”, `Cc1ccc(O)c(C(C)C)c1` displayed a pKa of 10.7.
As for `c1nc(NC2CCCCC2)c2[nH]cnc2n1`, the pKa reads like this: (acidic group) 10.2; (basic group) 4.2.
As for `COc1ccc2nc3c(c(N4CCOCC4)c2c1)CCC3`, the pKa (basic group) worked out at 7.14.
`CC(C)[NH2+]CC(O)c1cccc(N)c1` (configuration not stated) displayed a pKa (basic group) of 4.22.
Still for that read-out and setting: the figure for `CCNCC(=O)c1ccc(O)cc1` is 7.77.
As for `[NH3+]C(Cc1c[nH]c2ccccc12)C(=O)O` (configuration not stated), for the setting “acidic group”, the pKa stood at 2.48.
Consider `Cc1ccccc1NC1CCCC1`, for which, where the note is “basic group”, the pKa was 5.07.
The same measure, in the same setting: the figure for `NCC(=O)NCC(=O)[O-]` is 8.31; for `c1ccc2nc3ccccc3cc2c1` it is 5.48.
Turning to `C[NH+]1C[C@@H](C(=O)O)C[C@@]2(O)c3cccc4[nH]cc(c34)C[C@@H]12`, the pKa (acidic group) was 3.38.
The molecule `CC(=O)N(N)C1CCN(C)CC1` came in with a pKa (basic group) of 8.7.
For `O=C1Oc2ccccc2C(=O)C1CC1C(=O)Oc2ccccc2C1=O` (configuration not stated), the pKa (acidic group) was 5.5.
On the same count and under the same terms, the figure for `O=c1cc(-c2ccccc2)oc2cc(O)ccc12` is 7.39; for `Cc1c(Cl)cc2nnn(O)c2c1[N+](=O)[O-]` it is 3.21.
Consider `COCc1nc(C)c[nH]1`, for which the pKa (basic group) worked out at 7.03.
Same read-out and setting: the figure for `Cc1cc(Br)cc(C)c1N` is 3.54; for `Cc1cc(N)c(C)cn1` it is 9.68.
In turn, `CC(C)(C)CCC(=O)O` yielded a pKa (acidic group) of 4.83.
As to `CC(=O)Oc1ccccc1C(=O)NCC(=O)O`, for the setting “basic group”, the pKa stood at 3.77.
Same read-out and setting: the figure for `[NH3+]CCCCc1ccccn1` is 5.56.
Consider `O=[N+]([O-])c1cc(C[NH+]2CCOCC2)c(O)c2ccccc12`, for which the pKa (acidic group) worked out at 3.
Consider `COc1ccc(-c2cc3ccncc3[nH]2)c(OC)c1`, for which the pKa (basic group) turned out to be 8.29.
`Cc1ccc(C(=S)Nc2ccc(Br)cc2)cc1`: where the note is “acidic group”, the pKa is 10.8.
`C[C@H](O)C(=O)C1=Nc2c(nc(N)[nH+]c2O)NC1`: where the note is “acidic group”, the pKa was determined as 1.45.
On the same count and under the same terms, under `COc1ccccc1/C=C/C=N/O` stands 10.8.
Still for that read-out and setting: the figure for `O=P([O-])([O-])C([NH2+]Cc1ccccn1)c1ccccc1O` (configuration not stated) is 10.2; for `C[n+]1ccc(C(=O)Cc2ccccc2)cc1` it is 9.02.
`O=C(O)c1cccnn1` had a pKa (acidic group) of 3.
`CSC(=N)c1ccccc1` came in with a pKa (basic group) of 5.84.
The molecule `O=C1O[C@@H]([C@H](O)[C@@H](O)[C@@H](O)CO)C(O)=C1O` displayed a pKa (acidic group) of 4.3.
As to `Cc1ccccc1CN(C)C`, the pKa (basic group) was determined as 8.71.
With `Oc1cc2cccnc2c2cccnc12`, the pKa runs as follows: (acidic group) 8.5; (basic group) 3.9.
As for `C[N+](C)(C)CCCc1ccc(O)cc1`, the pKa (acidic group) worked out at 9.8.
In turn, `CCCCNc1nnc(-c2ccccc2)cc1C` registered a pKa (basic group) of 6.1.
Under “acidic group”, `CCCCCC[NH2+]CCC(=O)O` yielded a pKa of 3.61.
In turn, `c1ccc(CSc2ccccn2)cc1` gave a pKa (basic group) of 3.23.
With `Cc1cc(=O)n2ncnc2[nH]1`, where the note is “acidic group”, the pKa stood at 6.19.
The molecule `CCN(CC)CC(=O)Nc1ccccc1C` returned a pKa (basic group) of 7.95.
On the same count and under the same terms, the figure for `Cc1cnccn1` is 1.42.
Where the note is “acidic group”, `CC(=O)c1ccc(S)cc1` returned a pKa of 5.33.
Consider `CCCNCCC`, for which the pKa (basic group) stood at 11.
Same read-out and setting: the figure for `CN(C)c1cccc2ccccc12` is 4.83; for `CNc1ncccn1` it is 3.82.
Turning to `Cc1cccc(C(=O)O)c1I`, the pKa (acidic group) was determined as 2.92.
Where the note is “acidic group”, `CC(C)[C@H](C(=O)O)N1C[C@H](NC(=O)Cc2ccccc2)C1=O` displayed a pKa of 3.48.
Consider `CCCCCCCCCCCCCCC(=O)O`, for which, under “acidic group”, the pKa stood at 5.01.
Regarding `SCCNCc1cccs1`, the pKa (basic group) came to 8.93.
In turn, `CC(O)C(C(=O)O)c1ccc(C2CCCCC2)cc1` (configuration not stated) returned a pKa (acidic group) of 4.21.
`CNCCCc1ccccc1` returned a pKa (basic group) of 10.6.
On to `CCN1CC[C@]2(C)c3cc(O)ccc3C[C@H]1[C@H]2C`, for which the pKa (basic group) was determined as 9.42.
`Nc1nnnn1CC(=O)O` displayed a pKa (acidic group) of 2.38.
Still for that read-out and setting: under `Cc1cc(=O)oc2cccc(O)c12` stands 8.26.
For the setting “basic group”, `Nc1ncc(S(=O)(=O)c2ccccc2)s1` gave a pKa of 1.79.
Turning to `O=[N+]([O-])c1ccc(S(=O)(=O)O)cc1`, for the setting “acidic group”, the pKa was -7.15.
In the case of `CN1CCN(C(c2ccccc2)c2ccccc2)CC1`, the pKa (basic group) was 8.05.
In the case of `O=CNO`, the pKa (acidic group) came out at 8.77.
As to `CCNCc1ccccc1`, the pKa (basic group) worked out at 9.75.
For the molecule `COc1ccc2c(c1)NCC[NH2+]2`, the pKa (basic group) amounted to 1.93.
Still for that read-out and setting: the figure for `Cc1ccc(OC(=O)CCCCN(C)C)cc1` is 9.87; for `CCN1CCCC=C1C` it is 11.6.
In turn, `Nc1cccc(-c2ccccc2)c1` gave a pKa (basic group) of 4.28.
Same read-out and setting: the figure for `Cn1ncc2c(NCCO)ncnc21` is 3.86.
Molecule `Cc1cc2ccccc2c(C(=O)O)c1C` showed a pKa (acidic group) of 3.33.
On to `CC(=O)n1cnc2ccccc21`, for which, for the setting “basic group”, the pKa was 1.8.
The same measure, in the same setting: the figure for `Cc1cccc(C)c1Oc1ccccn1` is 2.26.
Same read-out and setting: the figure for `Cc1ccc(-c2ncc(-c3ccccc3)o2)cc1` is 1.04.
For the setting “acidic group”, `CC(O)[C@@H]1C[C@H](CC(=O)O)C1(C)C` (some centres not stated) displayed a pKa of 4.83.
Molecule `Cc1ccc(O)c([N+](=O)[O-])c1` showed a pKa (acidic group) of 7.4.

(Values after the pKa sets of Baltruschat and Czodrowski (2020).)
